According to publication PMC3758898 (Bioorganic & medicinal chemistry, 2013):

Tests used:
[1] = biological target: T1, UPPS (Undecaprenyl Pyrophosphate Synthase) (Bacteroides fragilis, UniProt Q5LI17); test: RP-HPLC with fluorescence detection; assay type: biochemical; settings: IPP 0.2 mM, MgCl2 0.5 mM, KCl 5 mM, 0.1% DDM, HEPES pH 7.4, 37 °C, 1 h
T1 sequence (Q5LI17 1-244): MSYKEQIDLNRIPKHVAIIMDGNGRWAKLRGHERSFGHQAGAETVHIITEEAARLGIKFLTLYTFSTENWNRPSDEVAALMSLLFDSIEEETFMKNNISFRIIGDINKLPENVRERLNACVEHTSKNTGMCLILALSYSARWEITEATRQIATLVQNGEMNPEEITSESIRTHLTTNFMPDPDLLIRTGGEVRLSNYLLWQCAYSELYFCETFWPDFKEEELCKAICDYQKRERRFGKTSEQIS

[2] = biological target: T1, UPPS (Undecaprenyl Pyrophosphate Synthase); test: RP-HPLC with fluorescence detection, TLC, ESI-MS, 1H-NMR of product; assay type: biochemical; settings: IPP 0.2 mM, MgCl2 0.5 mM, KCl 5 mM, 0.1% DDM, HEPES pH 7.4, 37 °C

| SMILES | RP-HPLC with fluorescence detection [1] | RP-HPLC with fluorescence detection, TLC, ESI-MS, 1H-NMR of product [2] |
| --- | --- | --- |
| C/C(=C/COP(=O)(O)OP(=O)(O)O)CC/C=C(\C)CNc1ccccc1C(N)=O [6a, (6Z)-8-(2-amideaniline)-3,7-dimethyl-2,6-octadiene diphosphate] | we observed identical activity with 2AB-N-PP | – |
| C/C(=C\COP(=O)(O)OP(=O)(O)O)CC/C=C(\C)CNc1ccccc1C(N)=O [6b, (6E)-8-(2-amideaniline)-3,7-dimethyl-2,6-octadiene diphosphate] | – | these results confirmed the formation of the long chain isoprenoid with 2AB-G-PP as the UPPS substrate |
